Data set [1] concerns Rattus norvegicus. Kind of data set: Anti-atherosclerosis activity in high cholesterol diet-induced Wistar rat atherogenesis model assessed as reduction in fatty streak formation in thoracic aorta at 10 mg/kg, po administered once daily measured after 4 weeks by Sudan red 4 staining based photographic method. The class given is functional, organism-based.
The test system of data set [2] is Rattus norvegicus. Put plainly: Acute toxicity in Wistar rat assessed as effect on viscera at 2000 mg/kg, po administered as single dose measured up to 14 days. The following applies: in vivo, 336 h. The class given is organism-based.
Data set [3] relates to Rattus norvegicus. Kind of data set: Acute toxicity in Wistar rat assessed as macroscopic lesions in lung at 2000 mg/kg, po administered as single dose measured up to 14 days. The class given is organism-based. As to conditions: in vivo, 336 h.
The nature of data set [4]: Acute toxicity in Wistar rat assessed as mortality administered orally as single dose measured up to 14 days. As to conditions: in vivo, po, read-out: CD50.
The test system of data set [5] is Rattus norvegicus. Kind of data set: Acute toxicity in Wistar rat assessed as macroscopic lesions in liver at 2000 mg/kg, po administered as single dose measured up to 14 days. It counts as organism-based. The following applies: in vivo, 336 h.
The test system of data set [6] is Rattus norvegicus. Put plainly: Acute toxicity in Wistar rat assessed as effect on gastrointestinal tract at 2000 mg/kg, po administered as single dose measured up to 14 days. It counts as organism-based. The following applies: in vivo, 336 h.
Data set [7] relates to Rattus norvegicus. Kind of data set: Anti-atherosclerosis activity in po dosed high cholesterol diet-induced Wistar rat atherogenesis model assessed as reduction in serum total cholesterol level administered once daily measured after 4 weeks. The class given is functional, organism-based.
Data set [8] deals with Rattus norvegicus. Put plainly: Acute toxicity in Wistar rat assessed as macroscopic lesions in spleen at 2000 mg/kg, po administered as single dose measured up to 14 days. The following applies: in vivo, 336 h. It counts as organism-based.
Data set [9] concerns Rattus norvegicus. Kind of data set: Acute toxicity in Wistar rat assessed as changes in eyes at 2000 mg/kg, po administered as single dose measured up to 14 days. It counts as organism-based. The following applies: in vivo, 336 h.
In data set [10] the test system is Rattus norvegicus. Kind of data set: Anti-atherosclerosis activity in high cholesterol diet-induced Wistar rat atherogenesis model assessed as reduction in VLDL-cholesterol level at 10 to 30 mg/kg, po administered once daily measured after 4 weeks. The class given is functional, organism-based.
Data set [11] has as its system Rattus norvegicus. Kind of data set: Acute toxicity in Wistar rat assessed as effect on breathing at 2000 mg/kg, po administered as single dose measured up to 14 days. The class given is organism-based. As to conditions: in vivo, 336 h.
Data set [12] relates to Rattus norvegicus. Put plainly: Acute toxicity in Wistar rat assessed as effect on locomotion at 2000 mg/kg, po administered as single dose measured up to 14 days. It counts as organism-based. As to conditions: in vivo, 336 h.

Active and inactive are the calls of the source. The rule behind the calls is not given here. A value given as a limit tells only on which side of the number the result lay.

Drawing on ChEMBL document CHEMBL4049391, “Vicinal diaryl azole-based urea derivatives as potential cholesterol lowering agents acting through inhibition of SOAT enzymes” (Eur J Med Chem, 2017), this text covers Activity and LD50 for one compound.

Consider `CCCCNC(=O)Nc1ccc(-c2sc(C)nc2-c2ccc(C)cc2)cc1`, for which the outcome in the data set with Rattus norvegicus [1] and with Rattus norvegicus [10] was inactive. For the same compound, the Activity entry in the data set on Rattus norvegicus [2] was “Non-Toxic”; in the data set on Rattus norvegicus [3], “Non-Toxic”; in the data set on Rattus norvegicus [5], “Non-Toxic”; in the data set on Rattus norvegicus [6], “Non-Toxic”; with Rattus norvegicus [7] it was “Dose-dependent effect”; in the data set with Rattus norvegicus [8] it was “Non-Toxic”. In addition, the Activity result with Rattus norvegicus [9], in the data set on Rattus norvegicus [11] and with Rattus norvegicus [12] was “Non-Toxic” each time. Moreover, the LD50 at 336 h in data set [4] was greater than 2000 mg/kg.
